# Experimental data reported in US6265423A, “Aromatic polycyclic retinoid-type derivatives, method for preparing same, and use thereof for making pharmaceutical and cosmetic compositions” (priority 1996, dated 2001).
# Columns and labels:
# [1] = system: ERE-βGlob-Luc, MELN lineage (MCF-7); assay: Anti-oestrogenic effect, MELN lineage activated by estradiol; type: cell-based, human
# Description: (§1) Certain properties of the retinoids have been determined using more developed cellular models. These models consist of cellular lineages transfected in a stable fashion by recombinant plasmids which place the expression of the gene of the luciferase under the control of different nuclear response elements. […] The tests carried out in duplicate are described below for each of these models.
# MCF-7 cells express RARα,γ and RXRα. The transfection of MCF-7 cells by an oestrogen-dependent gene (ERE-βGlob-Luc) has permitted the establishment of the MELN cellular lineage, used to determine the anti-oestrogenic activity of the retinoids. These cells contain the gene of the luciferase under the transcriptional control of the promoter of the βGlobine and of the response element ERE isolated from the gene of chicken vitelogenine A2. The experiments are carried out with MELN cells activated by 10^-9 M estradiol. The level of base activity of the MELN cells is obtained with the anti-oestrogen 1 μM 4-OH-tamoxifen (hydroxytamoxifen).
# The effect of the products tested on the cells activated by 10^-9 M estradiol is expressed as a percentage, the level of base activity being deducted.
# [2] = system: AP-1, MTLN lineage (MCF-7); assay: Anti-AP-1 effect, MTLN lineage activated by TPA; type: cell-based, human
# Experimental: as §1
# The anti-factor AP-1 transrepressor effect of retinoids is determined using the MTLN lineage, coming from MCF-7 cells transfected in a stable fashion by a vector p(TRE)3 -tk-Luc which places the expression of the gene of luciferase under the control of […]. TPA activates the AP-1 complex formed from proteins of the family of nuclear proto-oncogenes (c-Jun and c-Fos). […] The experiments are made with the MTLN cells activated by 10^-7 M TPA.
# The effect of the compounds on the MTLN cells activated by 10^-7 M TPA is expressed as a percentage. […] The inhibitive properties of the products are calculated after deduction of the base activity of the cells. The percentages reported correspond to a range of inhibitions determined from several experiments.
# [3] = system: human mammary tumoral lineage T-47D; assay: Clonogenic test (soft agar), growth of cellular colonies; type: cell-based; conditions: T-47D; for mean number of cellular colonies in relation to control / activity at 0.1 µM / activity at 0.01 µM / activity at 0.001 µM / activity at 0.0001 µM: 21 days, control = 100%; for activity at 0.1 µM / activity at 0.01 µM / activity at 0.001 µM / activity at 0.0001 µM: Homo sapiens, T47D, 504 h, read-out: mean number of cellular colonies in relation to control; for activity at 0.1 µM: 10^-7 M; for effect on growth of cellular colonies (in words): soft agar
# Description: The human tumour stem cells are the clonogenic cells which are the origin of the neoplasic cells which constitute a given tumour. These tumour stem cells are responsible for the recidivism process observable after surgical resection of the primary tumours and are also responsible for the formation of metastases. […] At the level of a tumour or of a tumoral cellular lineage, these clonogenic stem cells distinguish themselves from other clonogenic cells of the tumour or of the neoplasic cellular lineage being considered, by the fact that they preserve their ability to proliferate in the absence of any solid support.
# This technique is suitable for the culturing in vitro of most of the tumours and tumoral cellular lineages of various histological types. In the context of this test, the neoplastic cells are cultured on a semi-solid culture medium "soft agar" made up of a mixture of agar and agarose. On this selective support, only tumoral stem cells survive and proliferate. […] The morphological characteristics and the growth of the cellular colonies are also a function of the histological type of the tumours being considered.
# These culture conditions are also called "anchorage-independent" conditions.
# The base medium "MEM 25 MM HEPES" (Minimum Essential Medium, Life Technologies, Belgium) contains Eagle salts but no L-glutamine. This medium is well suited to the growth of a range of varied diploid cells or primary mammal cells. To this medium is then added:
# The tumoral cells are maintained in culture in 25 cm^2 falcon dishes (Life Technologies, Belgium). They are then trypsinised and individualised. Their rate of viability is determined by coloration with trypan blue (Sigma, Belgium). It must be greater than 90%. In the case where this condition is kept to, a cellular suspension at the desired concentration is prepared in a solution of agar at 0. 3%. The cells are then seeded between two layers of agar (Sigma, Belgium) and in 35 mm Petri dishes (Life Technologies, Belgium). The base layer is made up of a 0.5% solution of agar and the top layer is made up of a 0.3% solution of agar. The cupules are then positioned and held in an incubator at 37° C. and 5% of CO2. […] After treatment, the cupules are kept in the incubator for 21 days. It is advisable to examine, during the course of the experiment, the appearance and the increase of the cellular colonies. If after 10 days, no colony appears or is developing, the experiment must be repeated. In the contrary case, on the 21st day, 100 μl of an MTT solution (3-(4,5-dimethylthiazol-2-yl)-2,5 diphenyl tetrazolium bromide; Sigma, Belgium) dissolved in the RPMI culture medium (Roswell park Memorial Institute, Life Technologies, Belgium), at the concentration of 1 mg/ml are deposited on the top layer of the group of cupules. The cells are kept in contact with this solution for a minimum of 3 hours at 37° C.
# Using an inverted microscope at low magnification, the number of clones whose surface area is greater thar. 100 μm^2 is determined for the group of cupules representing all the different experimental conditions. Then, for each of these experimental conditions, the mean number of cellular colonies±the standard error on the mean (ESM) is calculated.
# The mean number of cellular colonies determined for each experimental condition is expressed as a percentage in relation to the control condition made equal to 100%.
# [4] = system: T-47D human mammary cancer cells; assay: MTT test, proliferation of T-47D; type: cell-based; conditions: Homo sapiens, T47D, T-47D, 72 h, control = 100%, read-out: level of proliferation; for activity at 100 µM: 10^-4 M; for activity at 1 µM: 10^-6 M; for activity at 0.01 µM: 10^-8 M
# Experimental: (§2) The cells that were cultured came from the ATCC (American Type Culture Collection).
# (§3) The cellular lines are kept in culture in a monolayer at 37° C. in closed culture dishes (Nunc. Gibco BRL, Life Technologies, Belgium) containing the minimum essential medium (MEM, Gibco) supplemented with 5% of Foetal Calf Serum, (FCS, Gibco), 0.6 mg/ml of glutamine (Gibco) and a mixture of 200 IU/mi of penicillin (Gibco), 200 μg/ml of streptomycin (Gibco) and 0.1 mg/ml of gentamycin (Gibco). The foetal calf serum is decomplemented for 1 hour at 56° C.
# (§4) This test is based on the mitochondrial reduction by living metabolically active cells of the MTT (3-(4,5-dimethylthiazol-2-yl)-2,5-diphenyltetrazolium bromide) of yellowish colour into a blue coloured product, formazan. The quantity of formazan obtained is directly proportional to the number of living cells. After incubation of the cells for 24 hours in microplates with 96 flat bottomed wells, the culture medium is replaced by 100 μl of fresh culture medium containing the drug to be tested.
# (§5) The microplates are then incubated for 3 hours at 37° C. and centrifuged for 10 minutes at 400 g (GPR centrifuge, Beckman). The MTT solution is replaced by 100 μl of dimethylsulphoxide (Merck). The microplates are agitated (Vari-Shaker, Dynatech) for 10 minutes.
# (§6) In the microplates, the control cells like the treated cells were incubated in a medium without the compounds to be tested for 24 hours. The control cells are incubated in a medium without a drug throughout the whole experiment, while the treated cells are incubated in different media. These media contain the molecule to be tested at various concentrations: 10^-8 M, 10^-6 M and 10^-4 M. All the tests are carried out in 6 duplicates.
# (§7) The statistical comparisons are carried out according to the Fisher Test:
# (§8) The mean optical density measured for each experimental condition is expressed as a percentage in relation to the laid down control condition being equal to 100%.
# [5] = system: ZR-75-1 human mammary cancer cells; assay: MTT test, proliferation of ZR-75-1; type: cell-based; conditions: Homo sapiens, 72 h, control = 100%, read-out: level of proliferation; for activity at 100 µM: ZR-75-1, 10^-4 M; for activity at 1 µM: ZR-75-1, 10^-6 M; for activity at 0.01 µM: ZR-75-1, 10^-8 M
# Experimental: as §2, §3, §4, §5, §6, §7, §8
# [6] = system: A549 human pulmonary cancer cells; assay: MTT test, proliferation of A549; type: cell-based; conditions: Homo sapiens, 72 h, control = 100%, read-out: level of proliferation
# [7] = system: A-427 human pulmonary cancer cells; assay: MTT test, proliferation of A-427; conditions: Homo sapiens, A-427, 72 h, read-out: level of proliferation
smiles,measurement,setting,value
"CC1(C)CCC(C)(C)c2cc(C(=O)Nc3ccc(C(=O)O)cc3)ccc21 [Am580, 4-[(5,6,7,8-tetrahydro-5,5,8,8-tetramethyl-2-naphthalenyl)carboxamido]benzoic acid, reference compound]",inhibition at 0.01 µM,"[1]; Homo sapiens, MCF7, 10^-8 M, cells activated by 10^-9 M estradiol, read-out: anti-oestrogenic effect, inhibition",36 to 51%
same,"anti-oestrogenic effect, inhibition (of the order of)","[1]; MELN, estradiol 10^-9 M",~40%
same,inhibition at 0.1 µM,"[2]; Homo sapiens, MCF7, 10^-7 M, cells activated by 10^-7 M TPA, range of several experiments, read-out: anti-AP-1 effect, inhibition",41 to 48%
same,inhibition at 0.01 µM,"[2]; Homo sapiens, MCF7, 10^-8 M, cells activated by 10^-7 M TPA, range of several experiments, read-out: anti-AP-1 effect, inhibition",40 to 46%
Cc1cc2c(cc1/C=C1/CCc3cc(-c4nnn[nH]4)ccc31)C(C)(C)CCC2(C)C [CB02981],mean number of cellular colonies in relation to control,"[3]; 10^-8 M, 0.01 µM",48.8 ± 5.3%
same,mean number of cellular colonies in relation to control,"[3]; 10^-9 M, 0.001 µM",67.6 ± 8.9%
same,mean number of cellular colonies in relation to control,"[3]; 10^-10 M, 0.0001 µM",80.1 ± 13.2%
"CC1=C(/C=C/C(C)=C/C=C/C(C)=C/C(=O)Nc2ccc(O)cc2)C(C)(C)CCC1 [CB05764, reference compound]",activity at 0.1 µM,[3],18.8%
same,activity at 0.01 µM,[3]; 10^-8 M,33.6%
same,activity at 0.001 µM,[3]; 10^-9 M,83.3%
same,activity at 0.0001 µM,[3]; 10^-10 M,80.3%
same,effect on growth of cellular colonies (in words),[3],strongly active at concentration 10^-7 M loses its significant inhibiting activity beyond the concentration of 10^-9 M
same,activity at 100 µM,[4],0%
same,activity at 1 µM,[4],66.4%
same,activity at 0.01 µM,[4],82.5%
same,activity at 100 µM,[5],0.6%
same,activity at 1 µM,[5],81.9%
same,activity at 0.01 µM,[5],97.3%
Cc1cc2c(cc1/C=C1\CCc3cc(C(=O)O)ccc31)C(C)(C)CCC2(C)C [CB40341],mean number of cellular colonies in relation to control,"[3]; 10^-8 M, 0.01 µM",65.6 ± 9.5%
same,mean number of cellular colonies in relation to control,"[3]; 10^-9 M, 0.001 µM",90.8 ± 0.8%
same,mean number of cellular colonies in relation to control,"[3]; 10^-10 M, 0.0001 µM",99.1 ± 9.7%
"CC/C(=C(\c1ccccc1)c1ccc(OCCN(C)C)cc1)c1ccccc1 [CB58707, tamoxifen, reference compound]",activity at 0.1 µM,[3],31.3%
same,activity at 0.01 µM,[3]; 10^-8 M,46.9%
same,activity at 0.001 µM,[3]; 10^-9 M,35.5%
same,activity at 0.0001 µM,[3]; 10^-10 M,56.7%
same,effect on growth of cellular colonies (in words),[3],significant inhibition in the growth of these colonies but its activity is not dose dependent
C/C(=C/c1cc2c(cc1C)C(C)(C)CCC2(C)C)c1ccc(-c2nnn[nH]2)cc1 [CB61692],activity at 0.01 µM,[3]; 10^-8 M,55.7 ± 2.6%
same,activity at 0.001 µM,[3]; 10^-9 M,41.5 ± 5.7%
same,activity at 0.0001 µM,[3]; 10^-10 M,90.3 ± 4.7%
same,activity at 100 µM,"[6]; A549, 10^-4 M",0%
same,activity at 1 µM,"[6]; A549, 10^-6 M",98.2%
same,activity at 0.01 µM,"[6]; A549, 10^-8 M",106%
same,activity at 0.01 µM,[7],105%
same,activity at 1 µM,[7],107%
same,activity at 100 µM,[7],0.6%
same,activity at 100 µM,[4],0%
same,activity at 1 µM,[4],93.8%
same,activity at 0.01 µM,[4],106%
same,activity at 100 µM,[5],0%
same,activity at 1 µM,[5],89.5%
same,activity at 0.01 µM,[5],93.2%
C/C(=C/c1ccc2c(c1)C(C)(C)CCC2(C)C)c1cc(C(=O)O)no1 [CB73069],inhibition,"[1]; Homo sapiens, MCF7, 10^-6 M, cells activated by 10^-9 M estradiol",17 to 21%
"CCCCCCCOc1cc2c(cc1/C(C)=C/c1ccc(C(=O)O)cc1)C(C)(C)CCS2(=O)=O [Ro 41-5253, reference compound]",anti-oestrogenic effect (in words),[1]; estradiol-activated MELN cells,raises the inhibitor effect of Am580 and also of TTNPB
same,anti-AP-1 effect (in words),[2]; TPA-activated MTLN cells,does not allow the inhibition induced by TTNPB to be totally lifted
